According to patent publication US7053116B2, “Methods for protecting cells from amyloid toxicity and for inhibiting amyloid protein production” (The Salk Institute for Biological Studies, priority 2000, dated 2006):
Like-named read-outs stand apart in the source and are kept apart here. No end group written: not given here.

Tests used:
[1] = tested on: Aβ-induced MTT formazan exocytosis; test: Blocking of Aβ-induced MTT formazan exocytosis by amyloid-binding agents; format: cell-based
Description: MTT formazan exocytosis is assessed by microscopic observation. The needle-like crystals on the surface of the cells incubated with MTT, which are easily visible under a light microscope, represent exocytosed MTT formazan (Liu et al. (1997) J. Neurochem. 69:581–593). The percentages of cells exocytosing MTT formazan were determined by counting 300 cells in multiple fields using the presence of needle-like formazan crystals on cell surface as an indicator of MTT formazan exocytosis. A cell is counted as exocytosing MTT formazan when several needle-like formazan crystals are clearly visible.
The involvement of β-sheeted amyloid fibrils in generating this phenomenon is supported by the observation that amyloid-binding agents such as Congo red block 90% of the Aβ-induced MTT formazan exocytosis. Under denaturing conditions, non-amyloidogenic proteins such as insulin and glucagon also form protein fibrils with the same cross β structure as that in amyloid fibrils (Glenner et al., J. Histochem. Cytochem. 22:1141–1158 (1974) and Burke et al. Biochem. 11:2435–2439 (1972)). […] Therefore, the ability to enhance cellular MTT formazan exocytosis is a common property of protein fibrils having a cross β-pleated sheet structure. […]

B12 cells [2] = details: cited from earlier work; for enhancement of MTT formazan exocytosis: B12 cells, Liu and Schubert 1997; for induction of MTT formazan exocytosis by protein fibrils: fibrils formed under denaturing conditions, Liu and Schubert 1998
B12 cells [3] = details: for ability to induce MTT formazan exocytosis (in words): peptide preparations
Description: MTT reduction and MTT formazan exocytosis MTT reduction by cultured cells was performed in 96-well microtiter plates containing 100 μl of medium per well. Cells (about 10^4 cells per well) were plated in Dulbecco's modified Eagles's medium (DMEM) supplemented with 5% dialyzed fetal calf serum and incubated overnight before drug treatment. MTT reduction was started by adding 10 μl per well of a 2.5 mg/ml MTT stock in phosphate-buffered saline (PBS) and terminated by adding 100 μl of a solubilization solution containing 50% N,N′-dimethylformamide and 20% sodium dodecyl sulfate (SDS; pH 4.8). […] MTT reduction is determined the next day by determining absorbance at 570 nm with an automatic microtiter plate reader, using 630 nm as the reference wavelength.
MTT reduction by living cells is initially observed as intracellular formazan granules, and needle-like formazan crystals begin to appear on the cell surface after about 30 min of MTT reduction.
Amyloid peptide-induced MTT formazan exocytosis was determined with B12 cells, as described herein. B12 cells on 35 mm dishes were treated with 10 μM for 16 hr at 37° C., followed by 30 min MTT reduction. The percentage of cells exocytosing MTT formazan with morphology similar to that induced by Aβ was then determined.

Primary astrocytes = test: Astrocyte culture, quantitation of secreted cytokines (ELISA); format: cell-based, rat; details: astrocyte conditioned media; 10 μM peptide for 12 hr; mean ±S.E.M.
Description: Astrocyte culture and quantitation of secreted cytokines Primary astrocytes were prepared from the cortices of 2-day-old Sprague-Dawley rat pups according the method of Levison and McCarthy (Culturing Nerve Cells in: G. Banker, and K. Goslin (eds.), MIT Press, Cambridge, Mass. 1991, pp. 309–336). The dissected cortices were dissociated enzymatically with trypsin and mechanically by passing through a fine pipette. The cells were cultured in α-MEM (Life Technologies, MD) containing 10% fetal bovine serum and antibiotics. After 11 days in culture, the primary cells were replated at a density of 10,000 cells/cm^2 and grown until confluent. At least 24 hr before treatment, the cells were washed twice with PBS and then incubated with serum-free α-MEM containing N2 supplements (Life Technologies, MD).
Cytokine Measurements For IL-1β and TNF-α measurements, 7.5×10^4 cells/well were plated in a 48-well tissue culture plate. After 48 hr of incubation in serum-free α-MEM containing N2 supplements, the cells were treated with 10 μM of various amyloid or non-amyloidogenic peptides for 12 hr. Conditioned media from duplicate wells for each sample were collected and stored at −80° C. until use. Cytokine levels in the conditioned media were determined by ELISA kits from R&D systems and performed according to the manufacturer's protocols.

Hippocampal neurons [4] = test: Hippocampal neuronal cultures, assessment of neuronal viability
Description: (§1) The cells were suspended in a serum-free medium and plated on polylysine-coated 24-well tissue culture plates (1×10^6 cells/ml). The serum-free medium used is a modified minimal essential medium containing 30 mM glucose, 2 mM glutamine, 1 mM pyruvate, penicillin (100 U/ml), streptomycin (100 μg/ml), and N1supplements (Sigma). After 3 days in culture, the neurons acquire long and extensively branched neurites. Half of the medium in each dish was then replaced with fresh medium, and test reagents (20 μM peptide solutions) were added. Neuron survival was assessed 48 hours after treatment. Neurons were judged to be viable by the intactness of their neurites and soma (absence of vacuoles and the ability to exclude trypan blue). Five fields (˜80 neurons/field) were scored in each culture. The number of viable neurons in untreated cultures was designated as 100% survival.

astrocytes = test: Astrocyte activation indicated by morphological changes; format: cell-based, rat; details: peptide preparations
Description: The dissected cortices were dissociated enzymatically with trypsin and mechanically by passing through a fine pipette. The cells were cultured in α-MEM (Life Technologies, MD) containing 10% fetal bovine serum and antibiotics. After 11 days in culture, the primary cells were replated at a density of 10,000 cells/cm^2 and grown until confluent. At least 24 hr before treatment, the cells were washed twice with PBS and then incubated with serum-free α-MEM containing N2 supplements (Life Technologies, MD).

Hippocampal neurons [5] = tested on: Hippocampal neurons
Description: as §1

In the case of `Nc1c(/N=N/c2ccc(-c3ccc(/N=N/c4cc(S(=O)(=O)O)c5ccccc5c4N)cc3)cc2)cc(S(=O)(=O)O)c2ccccc12` [Congo red], the “block of the Aβ-induced MTT formazan exocytosis” value [1] is reported as 90%.

For Aβ1-28: nonfibrillogenic peptide, the “enhancement of MTT formazan exocytosis” value (B12 cells [2]) is given as “do not enhance”.

In the case of “Aβ1-40: amyloid beta 1-40, 40 amino acid form of amyloid beta peptide; lot not specified”, the “ability to induce MTT formazan exocytosis (in words)” value (shortened to “ability”) (B12 cells [3]) is given as “variable among different manufacturer's lots” and the “enhancement of MTT formazan exocytosis” value (B12 cells [2]) is given as “dramatically enhance”.

With GSNKGAIIGLM [Aβ25–35] the “ability” value (B12 cells [3]) was “always active”, the “IL-1β” value (Primary astrocytes) was 754 ± 78 pg/mL and the “TNF-α” value (Primary astrocytes) was 350 ± 46 pg/mL. The “enhancement of MTT formazan exocytosis” value (B12 cells [2]) was “dramatically enhance”.

For “Aβ17-40: nonfibrillogenic peptide (LVFFAEDVGSNKGAIIGLMVGGVV; Amyloid-beta protein 40; UniProt P05067 688-711, looked up, fragment)”, the “enhancement of MTT formazan exocytosis” value (B12 cells [2]) is listed as “do not enhance”.

With `CC[C@H](C)[C@H](NC(=O)[C@H](C)NC(=O)CNC(=O)[C@H](Cc1ccccc1)NC(=O)[C@H](CC(N)=O)NC(=O)[C@H](CC(N)=O)NC(=O)[C@H](CO)NC(=O)[C@H](CO)NC(=O)[C@H](Cc1c[nH]cn1)NC(=O)[C@@H](NC(=O)[C@H](CC(C)C)NC(=O)[C@H](Cc1ccccc1)NC(=O)[C@H](CC(N)=O)NC(=O)[C@H](C)NC(=O)[C@H](CC(C)C)NC(=O)[C@H](CCCNC(=N)N)NC(=O)[C@H](CCC(N)=O)NC(=O)[C@@H](NC(=O)[C@H](C)NC(=O)[C@@H]1CSSC[C@H](NC(=O)[C@@H](N)CCCCN)C(=O)N[C@@H](CC(N)=O)C(=O)N[C@@H]([C@@H](C)O)C(=O)N[C@@H](C)C(=O)N[C@@H]([C@@H](C)O)C(=O)N1)[C@@H](C)O)C(C)C)C(=O)N[C@@H](CC(C)C)C(=O)N[C@@H](CO)C(=O)N[C@@H](CO)C(=O)N[C@H](C(=O)N[C@@H](CC(N)=O)C(=O)N[C@H](C(=O)NCC(=O)N[C@@H](CO)C(=O)N[C@@H](CC(N)=O)C(=O)N[C@H](C(=O)N[C@@H](Cc1ccc(O)cc1)C(N)=O)[C@@H](C)O)C(C)C)[C@@H](C)O` [Human amylin] the “MTT (%)” value (B12 cells [3]; percentage of B12 cells exocytosing MTT formazan, 10 μM for 16 hr at 37° C., followed by 30 min MTT reduction, mean ±S.E.M.) was 97 ± 1 %, the “neurotoxicity to rat hippocampal neurons (in words)” value (Hippocampal neurons [4]; peptide preparations) was “kill rat hippocampal neurons” and the “Viable Neurons (% of control)” value (Hippocampal neurons [4]; rat hippocampal neurons, 20 μM peptide solutions, 48 hours after treatment, mean ±S.E.M.) was 32 ± 7 % of control.

In the case of `CC(C)C[C@H](NC(=O)[C@H](CC(N)=O)NC(=O)[C@H](CC(N)=O)NC(=O)[C@H](CO)NC(=O)[C@H](CO)NC(=O)[C@H](CCCNC(=N)N)NC(=O)[C@@H](NC(=O)[C@H](CC(C)C)NC(=O)[C@H](Cc1ccccc1)NC(=O)[C@H](CC(N)=O)NC(=O)[C@H](C)NC(=O)[C@H](CC(C)C)NC(=O)[C@H](CCCNC(=N)N)NC(=O)[C@H](CCC(N)=O)NC(=O)[C@@H](NC(=O)[C@H](C)NC(=O)[C@@H]1CSSC[C@H](NC(=O)[C@@H](N)CCCCN)C(=O)N[C@@H](CC(N)=O)C(=O)N[C@@H]([C@@H](C)O)C(=O)N[C@@H](C)C(=O)N[C@@H]([C@@H](C)O)C(=O)N1)[C@@H](C)O)C(C)C)C(=O)NCC(=O)N1CCC[C@H]1C(=O)N[C@H](C(=O)N[C@@H](CC(C)C)C(=O)N1CCC[C@H]1C(=O)N1CCC[C@H]1C(=O)N[C@H](C(=O)N[C@@H](CC(N)=O)C(=O)N[C@H](C(=O)NCC(=O)N[C@@H](CO)C(=O)N[C@@H](CC(N)=O)C(=O)N[C@H](C(=O)N[C@@H](Cc1ccc(O)cc1)C(N)=O)[C@@H](C)O)C(C)C)[C@@H](C)O)C(C)C` [Rat amylin], the “ability” value (B12 cells [3]) is reported as “not active”, the “astrocyte activation as indicated by the morphological changes of the astrocytes (in words)” value (astrocytes) is reported as “not active” and the “neurotoxicity to rat hippocampal neurons (in words)” value (Hippocampal neurons [5]) is reported as “not active”. For the same compound, the “IL-1β” value (Primary astrocytes) was 46 ± 7 pg/mL, the “TNF-α” value (Primary astrocytes) was 48 ± 8 pg/mL and the “enhancement of MTT formazan exocytosis” value (B12 cells [2]) was “do not enhance”.

For “glucagon: non-amyloidogenic protein forming fibrils with cross β structure under denaturing conditions”, the “induction of MTT formazan exocytosis by protein fibrils” value (B12 cells [2]) is given as “induce MTT formazan exocytosis”.

For “insulin: non-amyloidogenic protein forming fibrils with cross β structure under denaturing conditions”, the “induction of MTT formazan exocytosis by protein fibrils” value (B12 cells [2]) is given as “induce MTT formazan exocytosis”.
